Experimental data from patent US20220313708A1, “COMBINATION PRODUCT CONTAINING LIMONOID COMPOUND AND SGLT-2 INHIBITOR” (ZHEJIANG YANGSHENGTANG INSTITUTE OF NATURAL MEDICATION CO., …, priority 2019, published 2022).

Tests used:
Format in all cases: in vivo
[1] = test system: mouse pancreatic islet β-cell injury model (STZ); assay: Blood glucose in STZ mouse pancreatic islet β-cell injury model (Example 1, canagliflozin); conditions: STZ ICR mice; single agent 0.02 g/kg per day by gavage, two weeks; 1 h after last administration; mean ± SD
Description: (§1) In this example, a mouse pancreatic islet β-cell injury model was established by modeling ICR mice with streptozotocin (STZ) (Li Nan et al., Protective effect of pine pollen on kidney damage in diabetic nephropathy mice, Science and Technology Review, 2014, 32 (4/5): 95-99), and used to complete the evaluation of hypoglycemic effect in animals (this model could simulate pancreatic islet β-cell damage state of type I and type II diabetics). The limonoid compound was selected from the group consisting of limonin, isolimonic acid, limonin glycoside, and isolimonic acid glycoside, and canagliflozin single administration group, limonin single administration group, isolimonic acid single administration group, limonin glycoside singe administration group, isolimonic acid glycoside singe administration group, and respective combination thereof with canagliflozin administration groups were set.
(§2) Conditions of experimental feeding: ICR mice (20±2 g), aged 6 weeks, purchased from Zhejiang Academy of Medical Sciences, and subjected to experimental feeding after 7 days of preliminary feeding. It should be noted that the conditions for raising the mice were as follows: the temperature was 23±1° C., the humidity was 55±10%, the lights were turned on between 7 am and 7 pm (the lights were turned off at other time), and the mice were allowed to freely take in water and feed. […]

[2] = test system: mouse type II diabetes model (db/db mice); assay: Blood glucose in db/db mouse type II diabetes model (Example 2, dapagliflozin); conditions: single agent 0.04 g/kg per day by gavage, two weeks, 1 h after last administration, mean ± SD
Description: (§3) In the present example, db/db mice (line name BKS.Cg-Dock7^m+/+Lepr^db/Nju) were used to perform hypoglycemic efficacy evaluation test of animals (blood glucose level and leptin). The limonoid compound was selected from obacunone, isoobacunoic acid and obacunone glycoside, and dapagliflozin single administration group, obacunone single administration group, isoobacunoic acid single administration group, obacunone glycoside single administered group, and respective combination thereof with dapagliflozin administration groups were set. Conditions for experimental feeding: as type II diabetes model mice, 6-week-old SPF-grade db/db mice were purchased from the Nanjing Model Biology Institute, and subjected to experimental feeding after 7 days of preliminary feeding. It should be noted that the conditions for raising the mice were as follows: the temperature was 23±1° C., the humidity was 55±10%, the lights were turned on between 7 am and 7 pm (the lights were turned off at other time), and the mice were allowed to freely take in water and feed. […] The data were expressed as mean and standard deviation. The data before and after were analyzed by t-test, and P<0.05 was considered statistically significant.

[3] = test system: mouse type II diabetes model (db/db mice); assay: Serum leptin by ELISA in db/db mouse type II diabetes model (Example 2); conditions: single agent 0.04 g/kg per day by gavage, two weeks, mean ± SD
Description: as §3

[4] = test system: mouse pancreatic islet β-cell injury model (STZ); assay: Blood glucose in STZ mouse pancreatic islet β-cell injury model (Example 3, empagliflozin); conditions: STZ ICR mice; single agent 0.1 g/kg per day by gavage, two weeks; 1 h after last administration; mean ± SD
Description: as §1, with “ichangin, ichangensin, and ichangin” for “limonin, isolimonic acid, limonin”, “empagliflozin” for “isolimonic acid glycoside, and canagliflozin”, “ichangin” for “limonin”, “ichangensi” for “isolimonic acid”, “ichangin” for “limonin glycoside singe administration group, isolimonic acid”, “empagliflozin” for “canagliflozin”
as §2

[5] = test system: mouse type II diabetes model (db/db mice); assay: Blood glucose in db/db mouse type II diabetes model (Example 4, ipragliflozin); conditions: single agent 0.2 g/kg per day by gavage, two weeks, 1 h after last administration, mean ± SD
Description: (§4) In the present embodiment, the limonoid compound was selected nomilin, deacetylnomilin, nomilin acid, deacetylnomilin acid glycoside, and ipragliflozin single administration group, nomilin single administration group, deacetylnomilin single administration group, nomilin acid single administered group, deacetylnomilin acid glycoside single administration group, and respective combination thereof with ipragliflozin administration groups were set.
(§5) Conditions for experimental feeding: as type II diabetes model mice, 6-week-old SPF-grade db/db mice were purchased from the Nanjing Model Biology Institute, and subjected to experimental feeding after 7 days of preliminary feeding. It should be noted that the conditions for raising the mice were as follows: the temperature was 23±1° C., the humidity was 55±10%, the lights were turned on between 7 am and 7 pm (the lights were turned off at other time), and the mice were allowed to freely take in water and feed. The experimental feed was mouse growth-stable feed (GB M2118), and the daily feeding and management of the animals were under the responsibility of the animal security department, which provided the animals with sufficient diet and fresh drinking water daily.
(§6) Experimental grouping: male db/db mice (20±2 g) were selected, 18 male mice in each group were tested, and drinking bottles were sterilized weekly. […]

[6] = test system: mouse type II diabetes model (db/db mice); assay: Serum insulin by ELISA in db/db mouse type II diabetes model (Example 4); conditions: single agent 0.2 g/kg per day by gavage, two weeks, mean ± SD
Description: as §4, §5, §6

Cc1ccc([C@@H]2O[C@H](CO)[C@@H](O)[C@H](O)[C@H]2O)cc1Cc1ccc(-c2ccc(F)cc2)s1 [Canagliflozin, canagliflozin]
Blood glucose value [1]: 19.1 ± 4.1 mmol/L

CCOc1ccc(Cc2cc([C@@H]3O[C@H](CO)[C@@H](O)[C@H](O)[C@H]3O)ccc2Cl)cc1 [Dapagliflozin, dapagliflozin]
Blood glucose value [2]: 12.0 ± 2.9 mmol/L
Leptin [3]: 25.34 ± 5.26 pg/mL

OC[C@H]1O[C@@H](c2ccc(Cl)c(Cc3ccc(O[C@H]4CCOC4)cc3)c2)[C@H](O)[C@@H](O)[C@@H]1O [Empagliflozin, empagliflozin]
Blood glucose value [4]: 13.9 ± 2.0 mmol/L

OC[C@H]1O[C@@H](c2ccc(F)c(Cc3cc4ccccc4s3)c2)[C@H](O)[C@@H](O)[C@@H]1O [Ipragliflozin, ipragliflozin]
Blood glucose value [5]: 10.3 ± 2.3 mmol/L
Insulin [6]: 7.61 ± 1.03 pg/mL
